Source: patent publication US20180243421A1, “IMMUNOSTIMULATING AGENT” (AJINOMOTO CO., INC., priority 2015, published 2018)

Assays:
[1] = test system: anti-OVA-specific IgG1 subclass antibody; experiment: Adjuvant activity after primary immunization: anti-OVA-specific IgG1 subclass antibody in serum (Examples 13-18); format: in vivo, BALB/c mice; conditions: OVA 5 μg + 0.256 μmol in 5% αCD saline s.c., serum after 12 days
Experimental: 8-Week-old female BALB/c mice were divided into groups (N=6), and each group was primarily immunized by dorsal-subcutaneous administration of (1) ovalbumin (OVA) (5 μg) dissolved in saline as an antigen (OVA single administration group), (2) OVA (5 μg) and SZ83 (0.256 μmol) dissolved or dispersed in 5% αCD-added saline (SZ83 administration group), (3) OVA (5 μg) and SZ84 (0.256 μmol) dissolved or dispersed in 5% αCD-added saline (SZ84 administration group), (4) OVA (5 μg) and SZ86 (0.256 μmol) dissolved or dispersed in 5% αCD-added saline (SZ86 administration group), (5) OVA (5 μg) and SZ89 (0.256 μmol) dissolved or dispersed in 5% αCD-added saline (SZ89 administration group), (6) OVA (5 μg) and SZ90 (0.256 μmol) dissolved or dispersed in 5% αCD-added saline (SZ90 administration group), each per mouse. After 12 days, blood samples were collected under anesthesia, and the obtained serum samples were subjected to the measurement of an anti-OVA-specific IgG1 subclass antibody.
Measurement Method of Concentration of anti-OVA-specific IgG1 Subclass Antibody and anti-OVA-specific IgG2a Subclass Antibody
To a 96 well plate was added 5 μg/ml OVA at 100 μl/well, and the mixture was incubated at 4° C. overnight. After incubation, the mixture was washed three times with 200 μl of PBS-T (PBS+0.05% (v/v) Tween 20) per well, and blocked with 100 μl of 5% FCS/PBS solution per well at room temperature for 1 to for 2 hr. Thereafter, the mixture was washed three times with PBS-T (200 μl/well), a diluted serum sample (100 μl/well) or the same amount of 5% FCS/PBS solution as a control was added, to and the mixture was incubated at 37° C. for 1 hr. To calculate concentration of the antibody, the standard of an anti-OVA-specific IgG1 subclass antibody diluted with 2% FCS/PBS solution was added at 100 ng/ml, 50 ng/ml, 25 ng/ml, 12.5 ng/ml, 6.25 ng/ml, 3.125 ng/ml, 1.56 ng/ml, 0.781 ng/ml, 0.391 ng/ml, 0.195 ng/ml, 0.098 ng/ml, 0 ng/ml, per 1 well. When an anti-OVA-specific IgG2a subclass antibody was measured, the standard of an anti-OVA-specific IgG2a subclass antibody was added at 50 ng/ml, 25 ng/ml, 12,5 ng/ml, 6.25 ng/ml, 3.125 ng/ml, 1.56 ng/ml, 0.781 ng/ml, 0.391 ng/ml, 0.195 ng/ml, 0.098 ng/ml, 0.049 ng/ml, 0 ng/ml, per 1 well. […] Thereafter, the mixture was washed five times with PBS-T (200 μl/well), a diluted anti-biotin-HRP antibody was added (100 μl/well), and the mixture was incubated at 37° C. for another 30 min. Thereafter, the mixture was washed five times with PBS-T (200 μl/well), TMB substrate solution was added (100 μl/well), and the mixture was incubated at room temperature for 10- for 15 min. Thereafter, a reaction quenching liquid (2N sulfuric acid solution) was added (50 μl/well) to discontinue a color developing reaction, and the absorbance (OD Value=450 nm) was measured by a microplate reader. A standard curve was drawn from the measured OD values, and the concentration was calculated.
8-Week-old female BALB/c mice were divided into groups (N=6), and each group was primarily immunized by dorsal-subcutaneous administration of (1) ovalbumin (OVA) (5 μg) dissolved in saline as an antigen (OVA single administration group), (2) OVA (5 μg) and SZ92 (0.256 μmol) dissolved or dispersed in 5% αCD-added saline (SZ92 administration group), (3) OVA (5 μg) and SZ94 (0.256 μmol) dissolved or dispersed in 5% αCD-added saline (SZ94 administration group), (4) OVA (5 μg) and SZ95 (0.256 μmol) dissolved or dispersed in 5% αCD-added saline (SZ95 administration group), (5) OVA (5 μg) and SZ96 (0.256 μmol) dissolved or dispersed in 5% αCD-added saline (SZ96 administration group), each per mouse. After 12 days, blood samples were collected under anesthesia, and the obtained serum samples were subjected to the measurement of anti-OVA-specific IgG1 subclass antibody.

[2] = test system: anti-OVA-specific IgG1 subclass antibody; experiment: Adjuvant activity: anti-OVA-specific IgG1 subclass antibody in serum after secondary immunization (Examples 1, 5, 7, 8; ELISA absorbance); format: in vivo, BALB/c mice
Experimental: Two weeks from the secondary immunization, the whole blood was extracted under anesthesia, and the obtained serum sample was measured for anti-OVA-specific IgG1 subclass antibody.
A method for measurement of the anti-OVA-specific IgG1 subclass antibody in Example 1, and the following Examples 5, 7 and 8 is as follows.
Measurement Method of anti-OVA-specific IgG1 Subclass Antibody
To a 96 well plate was added 5 μg/ml OVA at 100 μl/well, and the mixture was incubated at 4° C. overnight. After incubation, the mixture was washed three times with 200 μl of PBS-T (PBS+0.05%(v/v) Tween 20) per well, and blocked with 100 μl of 5% FCS/PBS solution per well at room temperature for 1 to 2 hr. Thereafter, the mixture was washed three times with PBS-T (200 μl/well), a diluted serum sample (100 μl/well) or the same amount of 5% FCS/PBS solution as a control was added, and the mixture was incubated at 37° C. for 1 hr. Thereafter, the mixture was washed five times with PBS-T (200 μl/well), a diluted biotinylated anti-mouse IgG1 antibody (100 μl/well) was added, and the mixture was incubated at 37° C. for 45 min. Thereafter, the mixture was washed five times with PBS-T (200 μl/well), a diluted anti-biotin-HRP antibody was added (100 μl/well), and the mixture was incubated at 37° C. for another 30 min. Thereafter, the mixture was washed five times with PBS-T (200 μl/well), TMB substrate solution was added (100 μl/well), and the mixture was incubated at room temperature for 10 to 15 min. Thereafter, a reaction quenching liquid (2N sulfuric acid solution) was added (50 μl/well) to discontinue a color developing reaction, and the absorbance (OD Value=450 nm) was measured by a microplate reader.

[3] = test system: anti-OVA-specific IgE antibody; conditions: mouse, in vivo
Experimental: The serum sample obtained in Example 1 was measured for an anti-OVA-specific IgE antibody. The measurement method of the anti-OVA-specific IgE antibody in Example 3 and Examples 6, 9 is as follows.
Measurement Method of anti-OVA-specific IgE Antibody
DS mouse IgE ELISA (OVA) kit manufactured by DS Pharma Biomedical Co., Ltd. was used. The protocol is briefly shown below.
The serum sample and a standard reagent for drawing an analytical curve are diluted with a buffer and, after stirring, left standing at room temperature for 10 min. The sample and the standard solution are added to a plate bound with an IgE capture antibody in advance and, after stirring, the mixture is left standing at room temperature for 60 min. The mixture is washed three times with wash, HRP-labeled OVA is added, and the mixture is left standing at room temperature for 30 min. The mixture is washed three times with wash, a substrate solution is added, and the mixture is left standing in dark at room temperature for 30 min. A reaction quenching liquid is added, the mixture is stirred, and the absorbance (OD Value=450 nm) is immediately measured.
This test was performed in the same manner as in Example 3 except that N^2-hexadecanoyl-L-arginine (SZ61), N-hexadecanoylagmatine (SZ62), N^2-hexadecanoyl-L-arginine methyl ester hydrochloride (SZ63), N^2-octadecanoyl-L-glutamine tert-butyl ester (SZ64), and N^2-octadecanoyl-L-glutamine (SZ65) were used.
This test was performed in the same manner as in Example 6 except that N-hexadecanoylagmatine (SZ62), N^2-octadecanoyl-L-glutamine tert-butyl ester (SZ64), N-docosanoyl-L-leucine methyl ester (SZ70), and N-docosanoyl-L-phenylalanine methyl ester (SZ71) were used and a positive control adjuvant Addavax™ (InvivoGen) administration group was formed.
(§1) The allergy inducing activity test was performed in the same manner as in Example 3 except that Addavax™, N-(2-octadecyleicosanoyl)-L-leucine methyl ester (SZ86), N-hexadecanoyl-L-leucinamide (SZ90), N^2-hexadecanoyl-N^1,N^1-diethyl-L-leucinamide (SZ92), N^2-hexadecanoyl-L-arginine hexyl ester hydrochloride (SZ99) and N^2-docosanoyl-N^1,N^1-diethyl-L-glutamic acid 1-amide (SZ106) were used.
as §1, with “N-hexadecanoyl-L-leucine” for “N^2-hexadecanoyl-L-arginine”, “(SZ97),” for “hydrochloride (SZ99) and”, “(SZ106) and N-docosanoylagmatine hydrochloride (SZ108)” for “(SZ106)”
8-Week-old female BALB/c mice were divided into groups (N=6), and each group was primarily immunized by dorsal-subcutaneous administration of (1) ovalbumin (OVA) (5 μg) dissolved in saline as an antigen (OVA single administration group), (2) OVA (10 μg) and aluminum hydroxide salt dissolved in saline (Alum administration group), (3) OVA 10 μg and Addavax™ (mixed with saline at 1:1) dissolved in saline (Addavax™ administration group), (4) OVA 10 μg and CpG 5 μg dissolved in saline (CpG administration group), (5) OVA 10 μg and MPL 5 μg dissolved in saline (MPL administration group), (6) OVA (5 μg) and SZ62 (0.256 μmol) dissolved or dispersed in 5% αCD-added saline (SZ62 administration group), (7) OVA (5 μg), SZ62 (0.256 μmol) and CpG 5 μg dissolved or dispersed in 5% αCD-added saline (SZ62+CpG administration group), (8) OVA 10 μg, Addavax™ (mixed with saline at 1:1) and CpG 5 μg dissolved in saline (Addavax™+CpG administration group), (9) OVA (5 μg), SZ62 (0.256 μmol) and MPL 5 μg dissolved or dispersed in 5% αCD-added saline (SZ62+MPL administration group), (10) OVA (10 μg), aluminum hydroxide salt (Alum) and MPL 5 μg dissolved in saline (Alum+MPL administration group), each per mouse. One week later, the secondary immunization was carried out by dorsal-subcutaneous administration of solutions or dispersions similar to those of the above-mentioned (1) to (10) again.

CCCCCCCCCCCCCCCC(=O)N[C@@H](CCCNC(=N)N)C(=O)N(CC)CC.Cl [SZ110, N^2-hexadecanoyl-N^1,N^1-diethyl-L-arginine amide hydrochloride salt]
anti-OVA-specific IgG1 subclass antibody production after primary immunization as compared to the OVA single administration group ([1]; Example 16): tended to increase

CCCCCCCCCCCCCCCCCCCCCC(=O)N[C@@H](CC(C)C)C(=O)N(CC)CC [SZ125, N^2-docosanoyl-N^1,N^1-diethyl-L-leucinamide]
anti-OVA-specific IgG1 subclass antibody production after primary immunization as compared to the OVA single administration group ([1]; Example 17): tended to increase

CCCCCCCCCCCCCCCCCCCCCC(=O)N[C@@H](CC(C)C)C(=O)OCCCCCC [SZ124, N-docosanoyl-L-leucine hexyl ester]
anti-OVA-specific IgG1 subclass antibody production after primary immunization as compared to the OVA single administration group ([1]; Example 17): tended to increase

CCCCCCCCCCCCCCCCCCCCCC(=O)N[C@@H](CCCNC(=N)N)C(=O)N(CC)CC.Cl [SZ129, N^2-docosanoyl-N^1,N^1-diethyl-L-arginine amide hydrochloride salt]
anti-OVA-specific IgG1 subclass antibody production after primary immunization as compared to the OVA single administration group ([1]; Example 18): significantly increased

CCCCCCCCCCCCCCCCCCCCCC(=O)N[C@@H](CCC(=O)O)C(=O)OCCCCCC [SZ135, N-docosanoyl-L-glutamic acid hexyl ester]
anti-OVA-specific IgG1 subclass antibody production after primary immunization as compared to the OVA single administration group ([1]; Example 18): tended to increase

CCCCCCOC(=O)[C@H](CCCNC(=N)N)NC(=O)CCCCC.Cl [SZ130, N^2-hexanoyl-L-arginine hexyl ester hydrochloride salt]
anti-OVA-specific IgG1 subclass antibody production after primary immunization as compared to the OVA single administration group ([1]; Example 18): tended to increase

CCCCCCCCCCCCCCCC(=O)N[C@@H](CC(C)C)C(=O)OC(C)(C)C [SZ89, N-hexadecanoyl-L-leucine tert-butyl ester]
anti-OVA-specific IgG1 subclass antibody production after primary immunization ([1]; Example 13): show a tendency to increase

CCCCCCCCCCCCCCCCCCCCCC(=O)N[C@@H](CCCNC(=N)N)C(N)=O.Cl [SZ128, N^2-docosanoyl-L-arginine amide hydrochloride salt]
anti-OVA-specific IgG1 subclass antibody production after primary immunization as compared to the OVA single administration group ([1]; Example 18): significantly increased

CCCCCCCCCCCCCCCCCC(=O)N[C@@H](CCC(N)=O)C(=O)OC(C)(C)C [SZ64, N^2-octadecanoyl-L-glutamine tert-butyl ester]
adjuvant activity (IgG1) compared with Alum ([2]; Example 5): equivalent to or not less than that of Alum | anti-OVA-specific IgG1 subclass antibody production as compared to the OVA single administration group ([2]; Example 5, same manner as Example 1): significantly increased | adjuvant activity (IgG1) compared with Alum ([2]; Example 8): equivalent to or not less than that of Alum | anti-OVA-specific IgG1 subclass antibody production as compared to the OVA single administration group ([2]; Example 8, same manner as Example 7): significantly increased | allergy inducing activity as compared to aluminum hydroxide gel adjuvant [3]: lower allergy inducing activity | allergy inducing activity as compared to aluminum hydroxide gel adjuvant and Addavax [3]: lower allergy inducing activity | anti-OVA-specific IgE antibody production as compared to the OVA single administration group [3]: a significant increase in the anti-OVA-specific IgE antibody production was not observed
